{"source": "patent US20080313751A1", "about": "“Method by Using Human or Mice-Isg12 to Develop and Prepare Drugs and Single Nucleotide Polymorphism in the Isg12 Gene for Diagnostic Use” (priority 2005, published 2008)", "system": "NR4A1", "experiment": "Subcellular (cytosol/nucleus) distribution of NR4A1 with overexpressed ISG12", "type": "cell-based, human", "conditions": "EGFP-tagged NR4A1 and myc-tagged ISG12 overexpressed; data not shown", "description": "In order to quantify the effect of ISG12 on the cellular localization of NR4A1, the inventors analyzed the distribution of NR4A1 between the cytosol and the nucleus by separating sub-cellular fractions of 293 cells in which EGFP-tagged NR4A1 was overexpressed in the absence or presence of myc-tagged ISG12. In the presence of ISG12 20.8±7.4% (average±SD from 4 experiments; p<0.05) more NR4A1 was found in the cytosol as in the absence of ISG12. […] A representative example is given (n=3).\nWhen the same experiments were performed with an EGFP-tagged NR4A1 construct (AA248-580) that cannot be exported from the nucleus^24 no influence of ISG12 on subcellular distribution of that construct was seen (FIG. 5). Similarly, the effect of ISG12 on full length NR4A1 was impaired in the presence of leptomycin B that inhibits nuclear export (data not shown).\nHuman embryonic kidney 293 cells were grown in 6-wells to sub-confluence and then transfected with EGFP-NR4A1 and mycISG12 together or separately. Cell fractionation was performed 30 hours after transfection, using MS buffer (210 mM mannitol, 70 mM sucrose, 5 mM Tris-HCl, pH 7.5 and 1 mM EDTA) containing 1% protease inhibitor cocktail. After homogenizing the cells with a 27 gauge needle 10 times, samples were spun at 1300×g for 10 minutes at 4° C. to pellet the nuclei. […]", "data": [{"smiles": "CCC(=C/[C@H](C)C/C=C/C(C)=C/[C@@H](C)C(=O)[C@@H](C)[C@H](O)[C@@H](C)C/C(C)=C/C(=O)O)/C=C/[C@@H]1OC(=O)C=C[C@@H]1C", "note": "[leptomycin B]", "values": [{"measurement": "effect of ISG12 on full length NR4A1 (nuclear export / subcellular distribution) in the presence of the substance", "result": "impaired"}]}]}
